This series in a line: in vitro. The note with it: human, hela cells, % viability.

As to `Cc1ccc(C(=O)NCC(O)c2ccc(F)cc2F)cn1` (stereo not drawn) [CBK297751], the viability – broadly, a read-out of living cells in per cent, often relative to untreated cells – at 28.5 h, 10 µM is 89.8%.

On to `O=C(O)CCC(NC(=O)c1ccc(-c2ccc(Cl)cc2)s1)C(=O)O` (stereo not drawn) [CBK295171], for which the viability at 28.5 h, 10 µM was determined as 92.9%.

Regarding `COc1cccc(CC(=O)NCCNc2cccc(F)c2C#N)c1` [CBK305684], the viability at 28.5 h, 10 µM was 78.5%.

As to `COCCc1nc(Cc2ccc(OC)cc2)nn1CC1COCCO1` (stereo not drawn) [CBK307521], the viability at 28.5 h, 10 µM amounted to 89.7%.

For `COc1cccc(C(=O)Nc2nc3ccccc3n2Cc2ccccc2)c1OC` [CBK299811], the viability at 28.5 h, 10 µM is 91.4%.

As to `O=C(OCc1ccccc1F)c1cccc(-c2nnc(-c3ccccc3)o2)c1` [CBK267798], the viability at 28.5 h, 10 µM came out at 84.6%.

Take `O=C(Cc1ccsc1)N1CCn2nc(C(O)Cc3ccccc3)cc2C1` (stereo not drawn) [CBK306547]: the viability at 28.5 h, 10 µM worked out at 95.9%.

Regarding `CCOc1cc(/C=C2/SC(=S)N(c3cccc(Cl)c3)C2=O)ccc1OCC(=O)O` [CBK264966], the viability at 28.5 h, 10 µM is 94.2%.

`CCOC(=O)c1c(NC(=O)CCN2C(=O)c3cccc4cccc(c34)C2=O)sc2c1CCC2` [CBK262982]: the viability at 28.5 h, 10 µM was 111%.

For `CC(=O)N1N=C(c2ccc3c(c2)OCO3)CC1c1ccc(C(=O)O)cc1` (stereo not drawn) [CBK286547], the viability at 28.5 h, 10 µM worked out at 95.4%.

Turning to `OCc1cc(CC2(NCc3cccc4c3OCO4)COC2)no1` [CBK289314], the viability at 28.5 h, 10 µM was 90.6%.

Take `COc1ccc(-c2nn(CC(=O)O)cc2/C=C/c2cc(C(F)(F)F)nc(=O)[nH]2)cc1` [CBK287128]: the viability at 28.5 h, 10 µM worked out at 86.8%.

Consider `CC(C)n1ncc2cc(C(=O)Nc3ncccc3O)cnc21` [CBK305751], for which the viability at 28.5 h, 10 µM is 109%.

Turning to `CCCCN(C(=O)CC1SC(NC2CCCCCC2)=NC1=O)c1ccccc1` (stereo not drawn) [CBK067392], the viability at 28.5 h, 10 µM was 92.4%.

For `Cc1cc(C)nc(N/N=C/c2cn(-c3ccccc3)nc2-c2ccc([N+](=O)[O-])cc2)n1` [CBK262864], the viability at 28.5 h, 10 µM was 90.5%.

With `COc1cc2c(cc1OC)C(CCCC#N)=[N+](C)C(C)(C)C2` [CBK008807I], the viability at 28.5 h, 10 µM worked out at 97.9%.

As to `O=C(COC(=O)C1CCN(S(=O)(=O)c2cccc3cccnc23)CC1)c1ccc([N+](=O)[O-])cc1` [CBK264412], the viability at 28.5 h, 10 µM was determined as 101%.

Take `CCC(C)c1cc([N+](=O)[O-])cc([N+](=O)[O-])c1OC(=O)OC(C)C` (stereo not drawn) [CBK260882]: the viability at 28.5 h, 10 µM stood at 99.2%.

As for `O=C(Nc1ccccc1O)c1ccc2c(c1)C(=O)N(c1ccc(Sc3ccc([N+](=O)[O-])cc3)cc1)C2=O` [CBK262092], the viability at 28.5 h, 10 µM came to 86.8%.

For `Nc1nnc(C(F)(F)F)o1` [CBK023457], the viability at 28.5 h, 10 µM was 113%.

For the molecule `O=C(NCc1cccc(C(F)(F)F)c1)N1CCN(CCc2ccccc2)CC1` [CBK158902], the viability at 28.5 h, 10 µM was 90.1%.

Take `COc1ccc(Cn2c(=O)n(S(=O)(=O)c3ccc(-c4cc(C(F)(F)F)n(C)n4)s3)c3ccccc32)cc1` [CBK106552]: the viability at 28.5 h, 10 µM is 97.7%.

For `Cn1c(CN2CCN(S(C)(=O)=O)CC2)nc2cc([N+](=O)[O-])ccc21` [CBK268362], the viability at 28.5 h, 10 µM stood at 98.4%.

Regarding `NC(=O)C1(Cc2ccc(-c3ccccc3)cc2)CCN(C(=O)c2ccccc2)CC1` [CBK285789], the viability at 28.5 h, 10 µM was 95.1%.

With `CCc1cc(C(=O)OC)c(NC(=O)CC2NCCNC2=O)s1` (stereo not drawn) [CBK266990], the viability at 28.5 h, 10 µM came to 97.6%.

Consider `O=[N+]([O-])c1ccc(C2CNC(c3ccccc3O)O2)cc1` (stereo not drawn) [CBK262298], for which the viability at 28.5 h, 10 µM was 94%.

For `c1ccc(-n2ncc3c(NCc4cccnc4)ncnc32)cc1` [CBK265528], the viability at 28.5 h, 10 µM worked out at 85.2%.

Consider `COc1ncc(-c2cnc3[nH]c(=O)n([C@H](C)c4ccccc4)c3n2)cn1` [CBK064401], for which the viability at 28.5 h, 10 µM is 85.3%.

As for `CCCc1c(C(=O)NCCCN(C)C)cnn1-c1cc(Cl)cc(Cl)c1` [CBK107376], the viability at 28.5 h, 10 µM came to 89.3%.

In the case of `CS(=O)(=O)c1ccc(-c2ccc3c(c2)COC(C2CCN(C(=O)OCc4ccccc4)CC2)O3)cc1` (stereo not drawn) [CBK144643], the viability at 28.5 h, 10 µM came to 87.9%.

Regarding `COc1cccc(C2CC(=O)c3c(ccc4ccccc34)N2)c1OC` (stereo not drawn) [CBK262971], the viability at 28.5 h, 10 µM came to 94.1%.

`Cc1ccnc(NCC2CCN(CC(=O)NC3(C#N)CCCC3)C2)c1` (stereo not drawn) [CBK306128]: the viability at 28.5 h, 10 µM came to 85.8%.

With `CCCS(=O)(=O)NC[C@H]1C[C@@H]2CCN1C[C@@H]2c1cc(-c2ccccc2)nn1C` [CBK289095], the viability at 28.5 h, 10 µM was found to be 93.8%.

`CC(=O)OC1CCn2c1nc1ccccc12` (stereo not drawn) [CBK113621]: the viability at 28.5 h, 10 µM was found to be 92.6%.

On to `O=C(O)c1cc(Cl)c2c(c1)[C@@H]1C=CC[C@@H]1[C@H](c1cccc(Br)c1)N2` [CBK077927], for which the viability at 28.5 h, 10 µM was 106%.

Regarding `Cc1[nH]c2ccc(F)cc2c1CC(=O)N(C)CCN(C)C` [CBK282726], the viability at 28.5 h, 10 µM is 84.1%.

On to `COCCOCC(=O)N1CC(=O)N(c2ccccc2C#N)CC1C` (stereo not drawn) [CBK307258], for which the viability at 28.5 h, 10 µM amounted to 91.7%.

Take `c1ccc2c(OCc3nc4c5c6c(sc5ncn4n3)CCCCC6)cccc2c1` [CBK264151]: the viability at 28.5 h, 10 µM was 99.6%.

Turning to `O=C(Cn1ncc2cccn2c1=O)Nc1ccc(F)cc1` [CBK283672], the viability at 28.5 h, 10 µM came to 107%.

`Cc1cc2nc(NCC3CCCO3)c3ccccc3n2n1` (stereo not drawn) [CBK305871]: the viability at 28.5 h, 10 µM is 99.6%.

With `CC1(NC(=O)CC2C(=O)NCCN2Cc2cccc(F)c2)CCC1` (stereo not drawn) [CBK281611], the viability at 28.5 h, 10 µM amounted to 80.9%.

For `O=C(NCCCn1ccnc1)c1cc2c(ccc3ccccc32)oc1=O` [CBK263543], the viability at 28.5 h, 10 µM was 86%.

On to `O=C(NCC1CCCO1)c1ccc(-n2ccnc2)c(-n2cccc2)c1` (stereo not drawn) [CBK285356], for which the viability at 28.5 h, 10 µM came to 98.2%.

As for `CCN(CC)c1ccc(NC(=O)c2cc(-c3cccnc3)cnc2NCCN2CCOCC2)cc1` [CBK126566], the viability at 28.5 h, 10 µM was found to be 105%.

As to `Oc1cccc(OCCOc2cccc(C(F)(F)F)n2)c1` [CBK115797], the viability at 28.5 h, 10 µM was determined as 84.7%.

Regarding `Cc1ccc(/C=N\NC(=O)c2cccc(Cl)c2)s1` [CBK016469], the viability at 28.5 h, 10 µM is 90.8%.

`COc1ccc(-c2nc(NC(=O)C3CC(=O)N(C)C3c3cccnc3)cnc2-c2cccc(C)c2)cc1` (stereo not drawn) [CBK036692]: the viability at 28.5 h, 10 µM was 101%.

For the molecule `CCOC(=O)C1CCCN(Cc2c(C)nn(C)c2Cl)C1` (stereo not drawn) [CBK304838], the viability at 28.5 h, 10 µM was 92.4%.

Turning to `C#CCNC(=O)c1nn(Cc2ccc(CN3C(=O)CCC3=O)cc2)c2ccc(OC)cc12` [CBK048668], the viability at 28.5 h, 10 µM was determined as 86.2%.

`CCOC(=O)C(Cc1ccccc1)NC(=O)c1cn[nH]c1C` (stereo not drawn) [CBK305499]: the viability at 28.5 h, 10 µM is 99.7%.

Regarding `CC1(C)SC2c3ccccc3C(=O)N2[C@@H]1C(=O)N1CCC(C(=O)O)CC1` (stereo partly drawn) [CBK286760], the viability at 28.5 h, 10 µM was determined as 89.4%.

With `OCCc1ccc(Nc2cc(-c3cccnc3)ncn2)cc1` [CBK090768], the viability at 28.5 h, 10 µM worked out at 114%.

For the molecule `CCC(CC)C(=O)N1C[C@H]2CCc3nnc(-c4ccccc4)n3[C@H]2C1` [CBK283439], the viability at 28.5 h, 10 µM is 86.7%.

As for `CCCC/C=C/c1cncc(NC(C)CCCC(C)(C)O)n1` (stereo not drawn) [CBK065505], the viability at 28.5 h, 10 µM was 104%.

Take `CCN1CCCC1CNc1c(Cl)c(Cl)nc2c1c(=O)n(C)c(=O)n2C` (stereo not drawn) [CBK007287]: the viability at 28.5 h, 10 µM was 97.2%.

As to `NC(=O)C1CCN(C2=NC(=O)/C(=C/c3cn(-c4ccccc4)nc3-c3ccc(F)cc3)S2)CC1` [CBK265175], the viability at 28.5 h, 10 µM was 106%.

In the case of `O=C(OCCN1C[C@H]2CCCCC2C1c1ccccc1)c1ccc(Br)cc1` (stereo partly drawn) [CBK016175C], the viability at 28.5 h, 10 µM worked out at 104%.

As for `O=C(OCc1ccc(S(=O)(=O)N2CCOCC2)cc1)c1cc(-c2ccccc2)nc2ccccc12` [CBK267411], the viability at 28.5 h, 10 µM turned out to be 89.6%.

Regarding `c1ccc(CCCNc2ncc(-c3ccc(N4CCOCC4)cc3)n3ccnc23)cc1` [CBK091223], the viability at 28.5 h, 10 µM is 112%.

As to `CCOc1ccccc1C(=O)N1CCCCC1c1ncc(C(=O)Nc2ccccc2)c(C)n1` (stereo not drawn) [CBK285840], the viability at 28.5 h, 10 µM was found to be 103%.

Turning to `O=C(Oc1cccc2cccnc12)c1cccc(S(=O)(=O)Oc2cccc3cccnc23)c1` [CBK264545], the viability at 28.5 h, 10 µM came to 58.4%.

As to `O=C(c1ccc(F)cc1)C1CCN(CCC(c2ccccc2)c2ccccc2)CC1` [CBK149138], the viability at 28.5 h, 10 µM came out at 92.3%.

Take `C[C@]12CN(Cc3ccc(F)cc3)C[C@H]1NC(=O)c1ccccc1C2=O` [CBK284728]: the viability at 28.5 h, 10 µM was 87.8%.

For `CC(C)n1nccc1C(=O)NC1CCN(Cc2cccc(F)c2)CC1` [CBK282596], the viability at 28.5 h, 10 µM amounted to 84.5%.

Turning to `N=c1c2c(-c3ccccc3)c(-c3ccccc3)oc2ncn1CCCN1CCOCC1` [CBK268484], the viability at 28.5 h, 10 µM worked out at 92.6%.

In the case of `O=C(O)c1ccc(OCc2n[nH]c(=S)n2-c2ccc(Cl)cc2)cc1` [CBK014317], the viability at 28.5 h, 10 µM came to 102%.

As for `CCc1cc2c(NCc3ccccc3)ncnc2s1` [CBK057944], the viability at 28.5 h, 10 µM was 91.4%.

On to `O=C(c1cncnc1)N1CCC(F)CC1` [CBK200384], for which the viability at 28.5 h, 10 µM was 92.1%.

Regarding `Cc1nc2ccc(C(=O)NCCn3ccnc3C)cc2s1` [CBK282477], the viability at 28.5 h, 10 µM is 88.1%.

`O=C(O)CCCn1cc(NC(=O)c2ccc(Br)o2)cn1` [CBK270042]: the viability at 28.5 h, 10 µM was 106%.

With `Cc1cc(C)n(CCNCc2cc(-c3ccccc3)c[nH]c2=O)n1` [CBK284770], the viability at 28.5 h, 10 µM was found to be 101%.

`Cc1ccc(C2(O)CCN(Cc3cn(C)nc3C)CC2)cc1` [CBK282753]: the viability at 28.5 h, 10 µM amounted to 107%.

On to `CC1CN(Cc2nc3c(c(=O)n(C)c(=O)n3C)n2CCCO)CC(C)O1` (stereo not drawn) [CBK269298], for which the viability at 28.5 h, 10 µM was 99%.

On to `Cc1nn(CC(=O)N(C)C2CCCCC2)c(=O)c2cc3occc3n12` [CBK283653], for which the viability at 28.5 h, 10 µM is 92.4%.

On to `CCC(NC(=O)CCc1cccnc1)c1cn2cccnc2n1` (stereo not drawn) [CBK307247], for which the viability at 28.5 h, 10 µM is 81.7%.

Regarding `CC(=O)Nc1ccc(Nc2nc(-c3ccc(O)cc3)cn3ccnc23)cc1` [CBK037992], the viability at 28.5 h, 10 µM amounted to 94.8%.

As to `O=C(CCC(=O)OCN1C(=O)c2ccccc2C1=O)Nc1ccc2ccccc2c1` [CBK265277], the viability at 28.5 h, 10 µM came to 108%.

In the case of `CC(=O)Nc1cccc(NC(=O)CCCC(=O)O)c1` [CBK261598], the viability at 28.5 h, 10 µM came to 97.9%.

The record behind these values is PMC12040169 (PLOS Biology, 2025).
